Where “and” joins values, the source holds several entries; their conditions need not be identical. Equal values may be shown once. Calls of active or inactive are those of the source.
Columns and labels:
[1] = molecular target: T1, Eukaryotic translation initiation factor 2-alpha kinase 3 (Homo sapiens, UniProt Q9NZJ5); assay: Counterscreen assay for PERK inhibitors: Dose response cell-based high throughput screening assay to measure inhibition of PERK at 6 hours. [Related pubchem assays: 1522, 1416 ]; format: functional
[2] = molecular target: T1, Eukaryotic translation initiation factor 2-alpha kinase 3; assay: Dose response cell-based high-throughput screening assay to measure PERK inhibition. [Related pubchem assays: 1416 ]; format: functional
[3] = Luminescence Cell-Based Dose Response HTS to Identify Inhibitors of 5'UTR Stem-Loop Driven Prion Protein mRNA Translation in H4 Neuroglioblastoma Cells. [Related pubchem assays: 1827 (Project Summary), 1813 (Primary HTS)]; format: functional
[4] = molecular target: T2, Alkaline phosphatase, tissue-nonspecific isozyme (Homo sapiens, UniProt P05186)
T2 sequence (P05186 whole entry): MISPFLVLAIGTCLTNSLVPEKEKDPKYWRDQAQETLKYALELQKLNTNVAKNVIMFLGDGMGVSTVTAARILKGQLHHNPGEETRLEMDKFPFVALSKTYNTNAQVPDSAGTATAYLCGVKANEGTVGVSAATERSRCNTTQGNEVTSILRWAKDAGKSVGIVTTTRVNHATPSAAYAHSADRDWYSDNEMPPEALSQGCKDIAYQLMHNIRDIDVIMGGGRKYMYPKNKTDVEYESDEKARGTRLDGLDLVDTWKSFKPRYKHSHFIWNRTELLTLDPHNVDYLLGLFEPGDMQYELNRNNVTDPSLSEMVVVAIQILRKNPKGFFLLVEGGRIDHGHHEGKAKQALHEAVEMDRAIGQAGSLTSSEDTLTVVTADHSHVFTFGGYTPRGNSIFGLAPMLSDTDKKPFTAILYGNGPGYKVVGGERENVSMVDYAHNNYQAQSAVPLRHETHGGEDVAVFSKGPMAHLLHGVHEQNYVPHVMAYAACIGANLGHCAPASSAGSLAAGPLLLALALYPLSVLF

[5] = alpha-synuclein stem-loop luciferase translation blockers – H4 neuroglioma cells, luminescence, confirmation (AID 1988); format: functional, cell-based
[6] = luciferase reporter signal suppression in cells – H4 neuroglioma cells, luminescence, dose response (AID 1990); format: functional, cell-based
[7] = molecular target: Prothrombin (Homo sapiens, UniProt P00734); assay: Thrombin 1536 HTS Dose Response Confirmation. [Related pubchem assays: 1046 (Thrombin 1536 HTS; hits were confirmed in this assay)]; format: functional
[8] = molecular target: T3, Tyrosine-protein phosphatase non-receptor type 22 (Homo sapiens, UniProt Q9Y2R2); format: functional
T3 sequence (Q9Y2R2 whole entry): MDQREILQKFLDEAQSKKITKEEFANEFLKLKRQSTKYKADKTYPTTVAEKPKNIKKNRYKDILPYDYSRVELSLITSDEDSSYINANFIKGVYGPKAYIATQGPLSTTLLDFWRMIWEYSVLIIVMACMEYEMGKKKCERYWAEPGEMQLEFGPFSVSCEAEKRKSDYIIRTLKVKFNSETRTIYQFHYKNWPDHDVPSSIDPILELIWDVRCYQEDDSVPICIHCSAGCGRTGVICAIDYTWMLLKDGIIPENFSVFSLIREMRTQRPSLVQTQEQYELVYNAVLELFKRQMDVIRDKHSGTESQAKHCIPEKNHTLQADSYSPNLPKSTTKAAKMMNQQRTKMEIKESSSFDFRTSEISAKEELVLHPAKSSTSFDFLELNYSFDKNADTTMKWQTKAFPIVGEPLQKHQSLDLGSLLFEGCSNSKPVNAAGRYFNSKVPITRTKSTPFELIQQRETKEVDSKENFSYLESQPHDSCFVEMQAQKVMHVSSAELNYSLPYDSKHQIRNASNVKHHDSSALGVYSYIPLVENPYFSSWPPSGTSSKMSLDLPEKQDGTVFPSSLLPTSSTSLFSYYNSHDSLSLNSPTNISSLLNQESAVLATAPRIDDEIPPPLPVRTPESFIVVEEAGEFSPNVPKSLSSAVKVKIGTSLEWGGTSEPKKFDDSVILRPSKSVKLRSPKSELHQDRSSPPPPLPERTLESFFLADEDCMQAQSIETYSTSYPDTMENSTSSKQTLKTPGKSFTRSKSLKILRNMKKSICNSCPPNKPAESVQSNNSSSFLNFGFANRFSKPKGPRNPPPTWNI

[9] = molecular target: Estrogen receptor beta (Homo sapiens, UniProt Q92731); assay: blockers of SRC-3 recruitment to ERβ – biochemical, ELISA, streptavidin-HRP readout, orthogonal assay, confirmation (AID 1060)
[10] = molecular target: T3, Tyrosine-protein phosphatase non-receptor type 22; format: functional; remark: listed apart in the source
[11] = molecular target: T4, Voltage-gated N-type calcium channel alpha-1B subunit/Amyloid beta A4 precursor protein-binding family A member 1 (Homo sapiens, UniProt Q00975+Q02410); format: protein assay
[12] = molecular target: T4, Voltage-gated N-type calcium channel alpha-1B subunit/Amyloid beta A4 precursor protein-binding family A member 1; format: protein assay; remark: listed apart in the source
[13] = molecular target: Glyceraldehyde-3-phosphate dehydrogenase (Homo sapiens, UniProt P04406)
[14] = molecular target: Heat shock 70 kDa protein 1A (Homo sapiens, UniProt P0DMV8); assay: inhibition of Hsp70 binding activity – biochemical, fluorescence polarization, SAR follow-up (AID 1072)
[15] = molecular target: Eukaryotic translation initiation factor 4E (Mus musculus, UniProt P63073); assay: blockers of eIF4G binding by eIF4E – biochemical, TR-FRET, dose response (AID 855); format: functional;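 note: potency for disrupting eIF4E binding to eIF4GI seen as loss of FRET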
[16] = molecular target: T5, Dual specificity protein phosphatase 6 (Rattus norvegicus, UniProt Q64346); format: functional
T5 sequence (Q64346 whole entry): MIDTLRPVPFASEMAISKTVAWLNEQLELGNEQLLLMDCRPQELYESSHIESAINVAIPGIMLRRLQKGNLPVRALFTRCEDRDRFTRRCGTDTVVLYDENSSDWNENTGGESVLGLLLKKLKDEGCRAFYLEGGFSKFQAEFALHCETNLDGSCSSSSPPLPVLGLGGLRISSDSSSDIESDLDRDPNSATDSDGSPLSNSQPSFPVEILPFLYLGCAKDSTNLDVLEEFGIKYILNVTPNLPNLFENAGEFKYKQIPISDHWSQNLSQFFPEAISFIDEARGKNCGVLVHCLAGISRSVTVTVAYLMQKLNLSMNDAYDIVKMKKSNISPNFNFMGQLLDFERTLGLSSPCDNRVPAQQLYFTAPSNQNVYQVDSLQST

[17] = CCR5-tropic HIV-1 fusion blockers – cell-based, CCR5-tropic Env, dose response (AID 2279); format: functional
[18] = molecular target: Genome polyprotein (Hepatitis C virus, UniProt Q2Q167); assay: disruption of hepatitis C core self-association – biochemical, TR-FRET, dose response (AID 2159); set-up: species or system Hepacivirus hominis;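 note: blocks dimerization of HCV core protein measured by TR-FRET between tagged core106 pairs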
[19] = molecular target: T6, Tyrosine-protein phosphatase non-receptor type 7 (Homo sapiens, UniProt P35236); format: functional
T6 sequence (P35236 whole entry): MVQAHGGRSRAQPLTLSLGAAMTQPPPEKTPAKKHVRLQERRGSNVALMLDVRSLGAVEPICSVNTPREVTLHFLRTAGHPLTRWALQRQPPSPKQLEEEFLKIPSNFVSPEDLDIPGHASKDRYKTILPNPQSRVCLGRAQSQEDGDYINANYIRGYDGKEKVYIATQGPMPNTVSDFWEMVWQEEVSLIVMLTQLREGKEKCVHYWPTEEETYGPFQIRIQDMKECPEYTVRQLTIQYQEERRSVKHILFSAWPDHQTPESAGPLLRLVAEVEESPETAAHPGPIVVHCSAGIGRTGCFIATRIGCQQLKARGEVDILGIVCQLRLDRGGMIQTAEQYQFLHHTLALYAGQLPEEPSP

[20] = molecular target: T5, Dual specificity protein phosphatase 6
[21] = molecular target: T6, Tyrosine-protein phosphatase non-receptor type 7; format: functional; remark: listed apart in the source
[22] = viability loss in Vero cells – cytotoxicity control for Vif-APOBEC3G degradation inhibitor project, dose response (AID 1117358); format: functional; settings: Vero
[23] = molecular target: T5, Dual specificity protein phosphatase 6; assay: inhibition of rat DUSP6 enzyme activity – biochemical, in vitro, primary screen (AID 425)
[24] = molecular target: NS3 (Hepatitis C virus, UniProt A3EZJ3); assay: PubChem AID 2173; set-up: species or system Hepacivirus hominis
[25] = molecular target: Heat shock cognate 71 kDa protein (Homo sapiens, UniProt P11142); assay: In Vitro Hsc70 Dose Response Fluorescence Polarization Assay. [Related pubchem assays: 1072 ]
[26] = molecular target: Lysosomal acid glucosylceramidase (Homo sapiens, UniProt P04062); assay: Dose response cell-based high throughput screening assay to identify enhancers of beta-glucosidase activity. [Related pubchem assays: 784 ]; format: functional
[27] = system: Staphylococcus aureus; assay: Inhibitors of Bacterial Quorum Sensing Structure Activity Relationship (SAR) Analysis: Dose Response Assay. [Related pubchem assays: 700, 527 ]; format: functional, organism-based

T4 sequence (Q00975 whole entry): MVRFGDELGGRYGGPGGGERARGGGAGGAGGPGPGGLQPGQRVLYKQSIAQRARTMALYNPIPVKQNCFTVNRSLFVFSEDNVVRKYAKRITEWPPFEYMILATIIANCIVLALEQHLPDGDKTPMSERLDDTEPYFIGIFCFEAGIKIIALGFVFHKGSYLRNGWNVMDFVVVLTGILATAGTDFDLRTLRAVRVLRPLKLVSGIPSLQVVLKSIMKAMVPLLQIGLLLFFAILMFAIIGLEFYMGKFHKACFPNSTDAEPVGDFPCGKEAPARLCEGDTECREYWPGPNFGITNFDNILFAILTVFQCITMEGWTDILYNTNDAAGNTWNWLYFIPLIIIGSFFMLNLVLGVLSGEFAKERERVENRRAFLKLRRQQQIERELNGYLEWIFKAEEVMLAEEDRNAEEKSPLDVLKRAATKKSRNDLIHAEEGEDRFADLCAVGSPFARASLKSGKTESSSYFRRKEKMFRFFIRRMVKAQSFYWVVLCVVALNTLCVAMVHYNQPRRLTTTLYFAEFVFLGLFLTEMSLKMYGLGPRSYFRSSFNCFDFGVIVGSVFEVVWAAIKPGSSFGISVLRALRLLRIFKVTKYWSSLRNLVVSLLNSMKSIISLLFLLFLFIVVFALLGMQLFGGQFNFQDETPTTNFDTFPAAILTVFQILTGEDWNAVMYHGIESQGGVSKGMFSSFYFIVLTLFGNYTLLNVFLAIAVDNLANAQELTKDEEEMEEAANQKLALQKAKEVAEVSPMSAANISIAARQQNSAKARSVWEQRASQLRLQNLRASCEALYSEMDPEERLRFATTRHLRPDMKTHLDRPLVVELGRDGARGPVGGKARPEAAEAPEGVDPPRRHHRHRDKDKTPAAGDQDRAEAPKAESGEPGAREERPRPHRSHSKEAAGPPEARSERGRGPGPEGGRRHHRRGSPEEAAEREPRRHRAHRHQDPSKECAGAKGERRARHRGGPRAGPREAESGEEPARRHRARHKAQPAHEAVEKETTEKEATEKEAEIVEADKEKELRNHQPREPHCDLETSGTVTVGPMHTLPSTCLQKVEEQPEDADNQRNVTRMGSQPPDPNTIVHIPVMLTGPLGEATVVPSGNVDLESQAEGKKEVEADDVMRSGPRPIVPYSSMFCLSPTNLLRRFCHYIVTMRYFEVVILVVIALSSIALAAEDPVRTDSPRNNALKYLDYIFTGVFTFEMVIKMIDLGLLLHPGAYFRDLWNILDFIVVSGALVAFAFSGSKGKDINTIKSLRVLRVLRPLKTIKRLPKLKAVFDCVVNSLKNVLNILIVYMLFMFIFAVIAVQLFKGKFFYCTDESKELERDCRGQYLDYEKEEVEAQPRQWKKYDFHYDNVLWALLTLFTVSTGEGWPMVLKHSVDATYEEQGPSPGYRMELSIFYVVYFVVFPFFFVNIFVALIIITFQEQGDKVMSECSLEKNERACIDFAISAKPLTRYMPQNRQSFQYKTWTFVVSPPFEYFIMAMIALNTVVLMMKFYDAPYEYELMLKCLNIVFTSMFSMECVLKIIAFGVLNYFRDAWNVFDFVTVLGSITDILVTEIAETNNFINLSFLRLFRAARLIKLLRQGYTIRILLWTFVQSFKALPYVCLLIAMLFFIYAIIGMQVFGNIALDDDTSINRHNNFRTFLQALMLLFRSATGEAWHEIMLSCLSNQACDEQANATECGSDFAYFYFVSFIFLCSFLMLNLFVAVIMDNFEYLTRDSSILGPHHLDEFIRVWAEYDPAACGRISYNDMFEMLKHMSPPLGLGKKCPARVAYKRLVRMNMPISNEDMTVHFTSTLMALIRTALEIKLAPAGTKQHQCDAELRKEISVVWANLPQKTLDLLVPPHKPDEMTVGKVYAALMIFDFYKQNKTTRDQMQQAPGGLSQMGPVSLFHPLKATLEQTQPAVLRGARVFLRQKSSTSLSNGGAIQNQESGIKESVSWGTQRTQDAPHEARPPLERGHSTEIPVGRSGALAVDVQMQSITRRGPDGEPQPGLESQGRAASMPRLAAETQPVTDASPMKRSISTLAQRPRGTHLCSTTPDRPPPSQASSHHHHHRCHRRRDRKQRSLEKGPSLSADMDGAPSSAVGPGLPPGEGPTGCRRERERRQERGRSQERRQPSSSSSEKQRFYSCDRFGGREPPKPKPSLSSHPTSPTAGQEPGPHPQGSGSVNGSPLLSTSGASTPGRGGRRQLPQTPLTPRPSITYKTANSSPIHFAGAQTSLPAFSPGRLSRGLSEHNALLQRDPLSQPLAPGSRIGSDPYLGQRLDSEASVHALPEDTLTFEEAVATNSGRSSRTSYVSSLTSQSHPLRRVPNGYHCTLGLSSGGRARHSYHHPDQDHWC
T4 sequence (Q02410 whole entry): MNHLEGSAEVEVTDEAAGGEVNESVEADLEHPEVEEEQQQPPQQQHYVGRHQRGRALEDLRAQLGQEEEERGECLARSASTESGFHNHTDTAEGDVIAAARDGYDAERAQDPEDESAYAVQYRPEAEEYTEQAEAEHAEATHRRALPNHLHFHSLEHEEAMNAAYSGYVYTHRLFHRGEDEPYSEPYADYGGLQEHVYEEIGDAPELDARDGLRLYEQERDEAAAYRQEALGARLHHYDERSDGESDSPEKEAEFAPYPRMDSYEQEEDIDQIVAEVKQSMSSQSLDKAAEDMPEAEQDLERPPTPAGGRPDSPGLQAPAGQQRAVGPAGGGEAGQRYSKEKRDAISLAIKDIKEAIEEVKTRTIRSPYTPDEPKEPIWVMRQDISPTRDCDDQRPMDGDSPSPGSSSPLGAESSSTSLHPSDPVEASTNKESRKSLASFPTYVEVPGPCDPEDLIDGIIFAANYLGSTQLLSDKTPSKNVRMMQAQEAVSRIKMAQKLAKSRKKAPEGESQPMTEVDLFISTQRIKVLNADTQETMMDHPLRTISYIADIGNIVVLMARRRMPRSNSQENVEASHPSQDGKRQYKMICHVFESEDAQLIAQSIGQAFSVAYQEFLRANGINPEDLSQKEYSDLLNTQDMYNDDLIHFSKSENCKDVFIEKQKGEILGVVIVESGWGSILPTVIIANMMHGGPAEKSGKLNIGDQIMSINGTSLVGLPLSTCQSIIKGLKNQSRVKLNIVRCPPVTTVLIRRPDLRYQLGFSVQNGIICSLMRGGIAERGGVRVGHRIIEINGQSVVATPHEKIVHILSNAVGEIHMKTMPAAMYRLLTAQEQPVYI
T1 sequence (Q9NZJ5 whole entry): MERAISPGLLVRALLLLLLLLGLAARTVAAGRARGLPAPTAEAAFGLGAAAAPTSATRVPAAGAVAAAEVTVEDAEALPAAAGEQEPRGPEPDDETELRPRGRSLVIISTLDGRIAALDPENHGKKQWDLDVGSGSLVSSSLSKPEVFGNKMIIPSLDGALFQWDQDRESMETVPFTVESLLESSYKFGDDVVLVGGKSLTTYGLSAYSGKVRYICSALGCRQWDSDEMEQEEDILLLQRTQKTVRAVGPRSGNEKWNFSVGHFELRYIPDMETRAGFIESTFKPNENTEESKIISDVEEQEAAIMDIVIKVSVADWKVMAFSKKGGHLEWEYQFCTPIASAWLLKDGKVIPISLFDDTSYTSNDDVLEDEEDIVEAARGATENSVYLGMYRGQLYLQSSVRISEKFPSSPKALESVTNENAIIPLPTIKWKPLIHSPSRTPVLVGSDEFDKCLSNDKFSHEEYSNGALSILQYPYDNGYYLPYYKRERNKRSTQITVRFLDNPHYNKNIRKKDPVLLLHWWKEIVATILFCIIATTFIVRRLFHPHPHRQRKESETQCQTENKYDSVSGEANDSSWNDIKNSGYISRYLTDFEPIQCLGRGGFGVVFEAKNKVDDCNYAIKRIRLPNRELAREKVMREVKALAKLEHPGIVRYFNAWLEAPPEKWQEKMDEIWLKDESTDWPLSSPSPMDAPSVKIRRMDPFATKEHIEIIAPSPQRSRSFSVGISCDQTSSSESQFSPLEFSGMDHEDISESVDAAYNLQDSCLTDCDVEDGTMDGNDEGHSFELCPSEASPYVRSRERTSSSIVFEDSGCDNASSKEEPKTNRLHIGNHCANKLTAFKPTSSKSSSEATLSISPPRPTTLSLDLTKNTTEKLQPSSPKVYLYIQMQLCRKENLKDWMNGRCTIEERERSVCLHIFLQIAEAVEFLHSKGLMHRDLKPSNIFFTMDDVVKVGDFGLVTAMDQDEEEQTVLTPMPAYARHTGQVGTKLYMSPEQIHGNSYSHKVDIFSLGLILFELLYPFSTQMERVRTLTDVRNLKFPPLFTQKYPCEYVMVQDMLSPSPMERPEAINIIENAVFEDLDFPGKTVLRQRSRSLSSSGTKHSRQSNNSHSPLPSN
NS3, sequence (A3EZJ3 whole entry): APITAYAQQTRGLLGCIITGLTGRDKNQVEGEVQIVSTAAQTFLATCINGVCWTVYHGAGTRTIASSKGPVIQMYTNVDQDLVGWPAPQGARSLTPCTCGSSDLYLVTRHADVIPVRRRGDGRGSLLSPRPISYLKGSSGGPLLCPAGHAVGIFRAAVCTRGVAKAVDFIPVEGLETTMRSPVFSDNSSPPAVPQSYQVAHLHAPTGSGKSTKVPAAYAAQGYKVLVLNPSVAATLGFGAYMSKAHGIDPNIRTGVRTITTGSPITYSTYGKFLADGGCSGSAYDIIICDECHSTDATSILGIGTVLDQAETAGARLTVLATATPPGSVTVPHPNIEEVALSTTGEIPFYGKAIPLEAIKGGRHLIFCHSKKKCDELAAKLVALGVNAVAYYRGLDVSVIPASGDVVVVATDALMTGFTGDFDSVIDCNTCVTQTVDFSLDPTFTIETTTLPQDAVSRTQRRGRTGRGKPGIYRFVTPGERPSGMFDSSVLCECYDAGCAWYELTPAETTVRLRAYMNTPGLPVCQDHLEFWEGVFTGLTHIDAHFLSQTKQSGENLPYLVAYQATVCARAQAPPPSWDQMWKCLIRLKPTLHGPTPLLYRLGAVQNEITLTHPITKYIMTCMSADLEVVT
Genome polyprotein, sequence (Q2Q167 whole entry): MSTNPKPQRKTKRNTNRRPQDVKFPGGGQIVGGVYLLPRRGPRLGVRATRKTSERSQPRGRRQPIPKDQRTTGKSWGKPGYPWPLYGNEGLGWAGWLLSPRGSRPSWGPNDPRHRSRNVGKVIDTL

COc1ccc(C(=O)NCC(=O)OC2CCCCC2=O)cc1 (configuration not stated)
EC50 [1]: > 55.7 µM (not active)
EC50 [2]: > 55.7 µM (not active)

CCn1c(C)nc2cc(C(=O)N/N=C(\C)c3ccc(OC)cc3O)ccc21
EC50 [3]: 11.2 µM (active)
EC50 [4]: > 100 µM (not active)
EC50 [5]: 9.16 µM (active)
EC50 [6]: 12.8 µM (active)
IC50 [7]: > 50 µM (not active)

O=C(O)C1Nc2c(O)cccc2C2C=CCC12 (configuration not stated)
IC50 [8]: 8.35 µM (active)
IC50 [9]: > 50 µM (not active)
IC50 [10]: 6.84 µM (active)
IC50 [11]: 4.98 µM (active)
IC50 [12]: 8.61 µM (active)
IC50 [13]: 47.7 µM (active)
IC50 [14]: 9.87 µM (active)
IC50 [15]: 12.7 µM (active)
IC50 [16]: 7.38 µM (active) and 14.6 µM (active)
IC50 [17]: 29.4 µM (active)
IC50 [18]: > 49.8 µM (not active)
IC50 [19]: 0.503 µM (active)
IC50 [20]: 8.5 µM (active)
IC50 [21]: 11.2 µM (active)
CC50 [22]: > 40 µM (active)
IC50 [23]: > 10 µM (not active)
IC50 [24]: 3.43 µM (active)
IC50 [25]: 62 µM (active)

CCC(Sc1nc(C)cc(O)n1)C(=O)Nc1nc2c(s1)CCCC2 (configuration not stated)
EC50 [26]: > 50 µM (not active)

CSCCC(NC(=O)c1ccccc1)C(=O)OCC(=O)Nc1sc2c(c1C#N)CCCC2 (configuration not stated)
IC50 [27]: 0.44 µM (active)

— ChEMBL document CHEMBL1201862, “PubChem BioAssay data set” (2004)
